From US20230150974A1 (Foghorn Therapeutics Inc., priority 2020, published 2023)
Where a name gives a salt, the structure may show the parent alone.

Experiments:
HiBit-BRG1 = target: T1, HiBit-BRG1 (Homo sapiens, UniProt P51532); test: HiBit-BRG1 cell-based degradation assay (Nano-Glo HiBiT Lytic Detection); settings: HeLa cells expressing HiBit-BRG1 and LgBit, 24 h; for DC50: read-out: BRG1 HiBit Degradation IC50; for Dmax: read-out: BRG1 HiBit Degradation Maximum (%)
T1 construct: expressed in transfected cells
T1 sequence (P51532 whole entry): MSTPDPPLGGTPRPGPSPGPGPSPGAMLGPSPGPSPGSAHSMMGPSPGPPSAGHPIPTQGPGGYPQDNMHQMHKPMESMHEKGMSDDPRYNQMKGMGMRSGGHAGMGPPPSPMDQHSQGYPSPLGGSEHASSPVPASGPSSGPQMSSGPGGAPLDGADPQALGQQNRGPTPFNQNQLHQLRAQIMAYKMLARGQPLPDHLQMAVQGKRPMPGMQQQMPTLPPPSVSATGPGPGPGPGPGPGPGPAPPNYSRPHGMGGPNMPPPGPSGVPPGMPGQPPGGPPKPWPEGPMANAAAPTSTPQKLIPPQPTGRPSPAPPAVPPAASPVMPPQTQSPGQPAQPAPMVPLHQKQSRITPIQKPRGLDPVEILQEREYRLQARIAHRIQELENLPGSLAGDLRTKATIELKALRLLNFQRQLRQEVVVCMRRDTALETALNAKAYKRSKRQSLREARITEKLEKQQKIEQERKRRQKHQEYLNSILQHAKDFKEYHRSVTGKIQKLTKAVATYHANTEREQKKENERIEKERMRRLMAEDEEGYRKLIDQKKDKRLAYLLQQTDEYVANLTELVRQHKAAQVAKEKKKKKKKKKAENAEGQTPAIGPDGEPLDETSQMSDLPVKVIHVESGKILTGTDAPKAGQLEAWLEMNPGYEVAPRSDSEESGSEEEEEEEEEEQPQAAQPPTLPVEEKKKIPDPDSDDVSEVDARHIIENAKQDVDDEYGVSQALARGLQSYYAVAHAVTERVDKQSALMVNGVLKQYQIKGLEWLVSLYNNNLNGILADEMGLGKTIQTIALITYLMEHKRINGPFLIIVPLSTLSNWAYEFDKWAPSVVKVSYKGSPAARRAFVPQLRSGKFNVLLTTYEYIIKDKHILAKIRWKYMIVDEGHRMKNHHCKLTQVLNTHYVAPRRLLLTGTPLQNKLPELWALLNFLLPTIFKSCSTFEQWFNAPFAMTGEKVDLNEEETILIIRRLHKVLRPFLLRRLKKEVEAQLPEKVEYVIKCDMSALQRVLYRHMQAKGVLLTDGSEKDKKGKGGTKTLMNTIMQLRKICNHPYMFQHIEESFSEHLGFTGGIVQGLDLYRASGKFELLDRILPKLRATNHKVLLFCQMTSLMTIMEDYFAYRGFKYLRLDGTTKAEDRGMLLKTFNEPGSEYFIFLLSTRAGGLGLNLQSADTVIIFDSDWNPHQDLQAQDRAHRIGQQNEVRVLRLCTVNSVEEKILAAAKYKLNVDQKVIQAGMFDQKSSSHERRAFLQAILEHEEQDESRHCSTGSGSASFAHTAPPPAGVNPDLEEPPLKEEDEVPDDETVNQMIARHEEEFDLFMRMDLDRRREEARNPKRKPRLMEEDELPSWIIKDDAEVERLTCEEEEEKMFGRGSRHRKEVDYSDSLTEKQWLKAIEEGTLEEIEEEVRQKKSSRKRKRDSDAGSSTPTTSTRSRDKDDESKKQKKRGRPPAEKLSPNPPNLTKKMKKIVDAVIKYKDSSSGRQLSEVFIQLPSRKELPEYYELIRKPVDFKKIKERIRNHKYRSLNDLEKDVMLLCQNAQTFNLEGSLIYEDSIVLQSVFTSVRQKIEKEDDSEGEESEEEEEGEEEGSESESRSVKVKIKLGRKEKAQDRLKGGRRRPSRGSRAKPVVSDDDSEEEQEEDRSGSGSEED
Method in brief: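 Percent degradation derived from lytic HiBiT signal, normalized to DMSO-treated cells and to cells given 2 μM of a known BRM/BRG1 degrader. The HeLa line stably expressed HiBit-BRG1 and LgBit; treatment lasted 24 h at 5000 cells per well.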

HiBiT-BRM = target: T2, HiBiT-BRM (Homo sapiens, UniProt P51531); test: HiBiT-BRM cell-based degradation assay (Nano-Glo HiBiT Lytic Detection); settings: HeLa cells expressing HiBiT-BRM, 24 h; for DC50: read-out: BRM HiBit Degradation IC50
T2 construct: expressed in transfected cells
T2 sequence (P51531 whole entry): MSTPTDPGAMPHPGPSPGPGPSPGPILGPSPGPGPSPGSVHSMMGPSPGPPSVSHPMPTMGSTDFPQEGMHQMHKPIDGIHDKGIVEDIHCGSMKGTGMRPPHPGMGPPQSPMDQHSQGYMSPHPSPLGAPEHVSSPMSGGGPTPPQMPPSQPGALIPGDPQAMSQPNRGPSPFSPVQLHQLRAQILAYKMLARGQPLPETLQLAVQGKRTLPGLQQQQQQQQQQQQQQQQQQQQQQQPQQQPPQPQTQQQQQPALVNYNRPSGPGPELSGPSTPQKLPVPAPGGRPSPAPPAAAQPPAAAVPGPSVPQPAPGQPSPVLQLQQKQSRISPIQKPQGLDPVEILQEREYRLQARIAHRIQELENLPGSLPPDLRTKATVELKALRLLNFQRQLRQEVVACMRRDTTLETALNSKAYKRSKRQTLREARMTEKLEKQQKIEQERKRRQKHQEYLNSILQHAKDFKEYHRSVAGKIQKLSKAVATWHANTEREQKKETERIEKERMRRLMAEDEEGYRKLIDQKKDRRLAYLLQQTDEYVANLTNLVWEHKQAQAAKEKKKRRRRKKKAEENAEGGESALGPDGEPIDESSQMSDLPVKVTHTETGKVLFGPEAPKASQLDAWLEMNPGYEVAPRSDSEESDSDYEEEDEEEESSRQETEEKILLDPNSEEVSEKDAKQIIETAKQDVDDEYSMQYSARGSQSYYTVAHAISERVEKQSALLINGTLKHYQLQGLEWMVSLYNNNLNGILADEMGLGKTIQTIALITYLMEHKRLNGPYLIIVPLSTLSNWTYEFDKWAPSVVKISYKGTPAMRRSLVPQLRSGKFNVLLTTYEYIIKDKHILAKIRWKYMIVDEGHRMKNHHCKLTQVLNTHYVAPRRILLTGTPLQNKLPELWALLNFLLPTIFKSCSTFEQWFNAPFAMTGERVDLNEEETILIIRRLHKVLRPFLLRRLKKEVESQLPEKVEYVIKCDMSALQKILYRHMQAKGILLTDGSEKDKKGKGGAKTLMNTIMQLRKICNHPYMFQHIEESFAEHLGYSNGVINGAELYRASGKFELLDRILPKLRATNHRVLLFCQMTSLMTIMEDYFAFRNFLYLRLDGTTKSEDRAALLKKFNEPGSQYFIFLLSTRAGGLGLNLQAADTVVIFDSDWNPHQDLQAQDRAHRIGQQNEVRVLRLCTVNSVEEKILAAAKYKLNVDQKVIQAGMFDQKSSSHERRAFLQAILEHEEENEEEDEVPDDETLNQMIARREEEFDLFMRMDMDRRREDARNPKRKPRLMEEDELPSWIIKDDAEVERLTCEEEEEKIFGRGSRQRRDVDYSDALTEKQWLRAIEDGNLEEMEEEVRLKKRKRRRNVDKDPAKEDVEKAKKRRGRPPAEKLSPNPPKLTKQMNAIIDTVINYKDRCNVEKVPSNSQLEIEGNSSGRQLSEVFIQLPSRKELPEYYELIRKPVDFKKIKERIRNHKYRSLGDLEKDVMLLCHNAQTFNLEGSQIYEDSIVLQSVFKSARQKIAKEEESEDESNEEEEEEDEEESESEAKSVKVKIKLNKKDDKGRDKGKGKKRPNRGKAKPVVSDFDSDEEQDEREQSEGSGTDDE
Method in brief: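 HeLa cells stably expressing HiBiT-tagged BRM were treated for 24 h, then lysed with LgBiT-containing Nano-Glo reagent and luminescence read. % degradation scaled between DMSO (high control) and 2 μM reference BRM/BRG1 degrader (low control).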

SMILES | DC50 (HiBit-BRG1) [nM] | Dmax (HiBit-BRG1) [%] | BRM HiBit Degradation Maximum (%) (HiBiT-BRM) | DC50 (HiBiT-BRM) [nM]
Nc1nnc(-c2ccccc2O)cc1OCCc1ccc(CNCCCC2CN(c3cccc4c3C(=O)N(C3CCC(=O)NC3=O)C4=O)C2)cc1 (stereo not shown) [Compound 114, 4-(3-(3-((4-(2-((3-amino-6-(2-hydroxyphenyl)pyridazin-4-yl)oxy)ethyl)benzyl)amino)propyl)azetidin-1-yl)-2-(2,6-dioxopiperidin-3-yl)isoindoline-1,3-dione] | > 1000 | > 50 | B (“B” indicates maximum degradation ≥50%) | > 10
Nc1nnc(-c2ccccc2O)cc1OCCc1ccc(CNCCOc2cccc3c2C(=O)N(C2CCC(=O)NC2=O)C3=O)cc1 (stereo not shown) [Compound 115, 4-[2-([[4-(2-[[3-amino-6-(2-hydroxyphenyl)pyridazin-4-yl]oxy]ethyl)phenyl]methyl]amino)ethoxy]-2-(2,6-dioxopiperidin-3-yl)isoindole-1,3-dione] | > 1000 | < 50 | C (“C” indicates maximum degradation <50%) | > 1000
Nc1nnc(-c2ccccc2O)cc1OCCc1ccc(CNCCCCCOc2ccc3c(c2)C(=O)N(C2CCC(=O)NC2=O)C3=O)cc1 (stereo not shown) [Compound 116, 5-((5-((4-(2-((3-amino-6-(2-hydroxyphenyl)pyridazin-4-yl)oxy)ethyl)benzyl)amino)pentyl)oxy)-2-(2,6-dioxopiperidin-3-yl)isoindoline-1,3-dione; diformic acid] | > 1000 | < 50 | C (“C” indicates maximum degradation <50%) | > 1000
Nc1nnc(-c2ccccc2O)cc1OCCc1ccc(CNCCCCCNc2ccc3c(c2)C(=O)N(C2CCC(=O)NC2=O)C3=O)cc1 (stereo not shown) [Compound 117, 5-[[5-([[4-(2-[[3-amino-6-(2-hydroxyphenyl)pyridazin-4-yl]oxy]ethyl)phenyl]methyl]amino)pentyl]amino]-2-(2,6-dioxopiperidin-3-yl)isoindole-1,3-dione] | > 1000 | > 75 | B (“B” indicates maximum degradation ≥50%) | > 1000
Nc1nnc(-c2cc(F)ccc2O)cc1OCCc1ccc(CNCCCCCOc2cccc3c2C(=O)N(C2CCC(=O)NC2=O)C3=O)cc1 (stereo not shown) [Compound 118, 4-[[5-([[4-(2-[[3-amino-6-(5-fluoro-2-hydroxyphenyl)pyridazin-4-yl]oxy]ethyl)phenyl]methyl]amino)pentyl]oxy]-2-(2,6-dioxopiperidin-3-yl)isoindole-1,3-dione;formic acid salt] | > 1000 | < 50 | B (“B” indicates maximum degradation ≥50%) | > 100
Nc1nnc(-c2cc(F)cc(Cl)c2O)cc1OCCc1ccc(CNCCCCCOc2cccc3c2C(=O)N(C2CCC(=O)NC2=O)C3=O)cc1 (stereo not shown) [Compound 119, 4-((5-((4-(2-((3-amino-6-(3-chloro-5-fluoro-2-hydroxyphenyl)pyridazin-4-yl)oxy)ethyl)benzyl)amino)pentyl)oxy)-2-(2,6-dioxopiperidin-3-yl)isoindoline-1,3-dione; formic acid salt] | > 1000 | > 50 | C (“C” indicates maximum degradation <50%) | > 1000
Nc1nnc(-c2ccccc2O)cc1OCCc1ccc(CNCCCCCNc2cccc3nnn(C4CCC(=O)NC4=O)c(=O)c23)cc1 (stereo not shown) [Compound 120, 3-(5-[[5-([[4-(2-[[3-amino-6-(2-hydroxyphenyl)pyridazin-4-yl]oxy]ethyl)phenyl]methyl]amino)pentyl]amino]-4-oxo-1,2,3-benzotriazin-3-yl)piperidine-2,6-dione] | > 1000 | > 50 | B (“B” indicates maximum degradation ≥50%) | > 100
